Results taken from publication PMC3853740, “Chlorinated Didemnins from the Tunicate Trididemnum solidum” (Marine Drugs, 2013).
Read-outs that look alike come from different tables or passages of the source. *1 amine or outer side, *2 acyl side, *3 side chain or, on linkers, in order; H or OH if unused. Where a SMILES comes first, the peptide text is derived from it. Bridges are numbered along the chain shown (N, C = ends). [ ]: non-standard residue; d: D form. X1 = CC[C@H](C)[C@@H](N[*:1])[C@@H](O)CC(=O)O[C@H](C(=O)[C@H](C)C(=O)[*:2])C(C)C; X2 = CC(C(=O)C(OC(=O)CC(O)C(N[*:1])C(C)C)C(C)C)C(=O)[*:2]; X3 = COc1ccc(CC(C(=O)[*:2])N(C)[*:1])cc1Cl; NMeY = CN[C@@H](Cc1ccc(O)cc1)C(=O)O; dNMeL = CN[C@H](CC(C)C)C(=O)O; NMeL = CN[CH](CC(C)C)C(=O)O

What was measured:
[1] = target: T1, inducible nitric oxide synthase (iNOS) (Mus musculus, UniProt P29477); experiment: Inhibition of iNOS activity in LPS induced macrophages (RAW264.7 cells); format: cell-based
T1 construct: endogenous in cells; host or cells: RAW264.7 macrophages, LPS induced
T1 sequence (P29477 1-1144): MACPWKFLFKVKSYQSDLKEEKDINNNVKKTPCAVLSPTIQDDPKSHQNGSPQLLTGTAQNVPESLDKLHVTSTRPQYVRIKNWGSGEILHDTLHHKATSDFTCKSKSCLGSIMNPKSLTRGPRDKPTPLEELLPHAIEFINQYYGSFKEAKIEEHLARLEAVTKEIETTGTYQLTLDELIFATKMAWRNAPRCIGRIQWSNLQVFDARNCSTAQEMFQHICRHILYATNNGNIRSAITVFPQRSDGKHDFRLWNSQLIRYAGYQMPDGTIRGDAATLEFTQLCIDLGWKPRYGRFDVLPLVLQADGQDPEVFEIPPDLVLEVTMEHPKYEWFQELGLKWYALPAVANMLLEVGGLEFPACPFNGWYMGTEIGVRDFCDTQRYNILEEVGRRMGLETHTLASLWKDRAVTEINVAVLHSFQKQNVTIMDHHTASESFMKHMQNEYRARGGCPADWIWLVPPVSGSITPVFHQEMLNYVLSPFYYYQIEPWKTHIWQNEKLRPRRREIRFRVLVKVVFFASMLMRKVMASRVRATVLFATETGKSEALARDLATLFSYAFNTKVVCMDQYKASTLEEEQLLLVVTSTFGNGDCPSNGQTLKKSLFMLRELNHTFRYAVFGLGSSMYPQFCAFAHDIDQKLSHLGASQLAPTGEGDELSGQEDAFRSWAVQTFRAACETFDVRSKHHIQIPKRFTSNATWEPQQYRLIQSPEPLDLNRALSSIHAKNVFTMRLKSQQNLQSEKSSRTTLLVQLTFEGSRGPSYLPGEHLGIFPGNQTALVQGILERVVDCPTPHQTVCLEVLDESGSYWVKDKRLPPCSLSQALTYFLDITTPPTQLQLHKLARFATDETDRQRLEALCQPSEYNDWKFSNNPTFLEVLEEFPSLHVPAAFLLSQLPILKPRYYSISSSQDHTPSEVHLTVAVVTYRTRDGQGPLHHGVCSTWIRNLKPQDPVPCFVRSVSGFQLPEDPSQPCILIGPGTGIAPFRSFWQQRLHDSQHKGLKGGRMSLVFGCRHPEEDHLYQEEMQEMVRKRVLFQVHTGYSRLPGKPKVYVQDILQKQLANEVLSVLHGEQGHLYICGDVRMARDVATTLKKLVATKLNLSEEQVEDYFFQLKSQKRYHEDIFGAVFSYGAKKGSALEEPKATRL
Method: (§1) The isolated compounds 1–4 were tested in a series of in vitro cell-based assays for their effects on selected targets involved in the process of inflammation and cancer. Inflammation and oxidative stress are known to be linked to the development of many disorders such as cancer, organ damage, and neurodegenerative conditions. The NF-κB family of transcription factors plays a key role in inflammation, cell cycle regulation, apoptosis, and oncogenesis by controlling gene network expression. The activation of NF-κB involves many cellular processes leading to inflammation and development of cancer. In the assay for NF-κB activity, a luciferase construct with binding sites for specificity protein (SP-1) was used as a control because this transcription factor is relatively unresponsive to inflammatory mediators such as phorbol myristate acetate (PMA). Inducible nitric oxide synthase (iNOS) plays a key role in regulation of blood pressure, the immune system, infection, and inflammation. Overproduction of nitric oxide (NO) by iNOS has been implicated in various pathological processes such as septic shock, inflammation, rheumatoid arthritis, cancer, and tissue damage. The increase in NO response caused mainly by endotoxins and proinflammatory mediators such as lipopolysaccharide (LPS) can be reduced by anti-inflammatory agents acting as iNOS inhibitors. The isolated metabolites were also evaluated for their cytotoxicity towards four human solid tumor cell lines (SK-MEL: melanoma; KB: epidermal carcinoma; BT549: breast carcinoma and SK-OV-3: ovarian carcinoma) and non-cancer kidney cells (Vero: monkey kidney fibroblasts).
(§2) Similar to the effect of doxorubicin, the compounds (1–3) were less toxic towards noncancerous cells (Vero cells) which were included for comparison. The strong anticancer activity can be partly explained due to a strong inhibition of NF-κB mediated transcription that may cause enhanced apoptosis and cell death.
(§3) Inhibition of NF-κB mediated transcription was determined in SW1353 cells by a reporter gene assay as described by Ma et al.. Inhibition of iNOS activity was determined in RAW264.7 cells as described earlier. In vitro cytotoxicity was determined against a panel of four solid tumor cell lines and compared with noncancerous kidney cells (Vero). Parthenolide and doxorubicin were used as positive controls for anti-inflammatory and cytotoxic activity, respectively.

[2] = test system: nuclear factor-kappa B (NF-κB); experiment: Inhibition of NF-κB mediated transcription, reporter gene assay in PMA induced SW1353 chondrocytes; format: cell-based; details: Homo sapiens, SW1353 cells
Method: as §1, §2, §3

SK-MEL = experiment: In vitro cytotoxicity, SK-MEL melanoma; format: cell-based; details: Homo sapiens, read-out: Anti-cell proliferative activity IC50, SK-MEL
Method: as §1, §3

KB = experiment: In vitro cytotoxicity, KB epidermal carcinoma; format: cell-based; details: Homo sapiens, read-out: Anti-cell proliferative activity IC50, KB
Method: as §1, §3

BT-549 = experiment: In vitro cytotoxicity, BT-549 breast carcinoma; format: cell-based; details: Homo sapiens
Method: as §1, §3

SK-OV-3 = experiment: In vitro cytotoxicity, SK-OV-3 ovarian carcinoma; format: cell-based; details: Homo sapiens
Method: as §1, §3

VERO = experiment: In vitro cytotoxicity, Vero non-cancer kidney fibroblasts; format: cell-based, monkey; details: Primates, read-out: Anti-cell proliferative activity IC50, VERO
Method: as §1, §3

[3] = RAW264.7 cells, LPS induced, read-out: iNOS inhibition IC50
[4] = BT-549, read-out: Anti-cell proliferative activity IC50, BT-549
[5] = SK-OV-3, read-out: Anti-cell proliferative activity IC50, SK-OV-3

| SMILES | IC50 [1, 3] [nM] | IC50 [2] [nM] | IC50 (SK-MEL) [nM] | IC50 (KB) [nM] | IC50 (BT-549; [4]) [nM] | IC50 (SK-OV-3; [5]) [nM] | IC50 (VERO) [nM] | IC50 [1] [nM] | IC50 (SK-MEL; melanoma) [nM] | IC50 (KB; epidermal carcinoma) [nM] | IC50 (BT-549; BT-549, breast carcinoma, read-out: Anti-cell proliferative activity IC50, BT-549) [nM] | IC50 (SK-OV-3; SK-OV-3, ovarian carcinoma, read-out: Anti-cell proliferative activity IC50, SK-OV-3) [nM] | IC50 (VERO; noncancerous monkey kidney fibroblasts) [nM] |
| --- | --- | --- | --- | --- | --- | --- | --- | --- | --- | --- | --- | --- | --- |
| CNC(CC(C)C)C(=O)NC1C(=O)NC(C(C)C)C(O)CC(=O)OC(C(C)C)C(=O)C(C)C(=O)NC(CC(C)C)C(=O)N2CCCC2C(=O)N(C)C(Cc2ccc(OC)c(Cl)c2)C(=O)OC1C (centres unmarked) [Compound 2, nor-N,O-diMe-o-chlorotyrosine derivative of didemnin A] (H-[NMeL]T[X2]LP[X3]; ester 2-C; configuration not given here) | 420 | 620 | 60 | 420 | 160 | 380 | 2080 | – | – | – | – | – | – |
| CCC(C)C1NC(=O)C(NC(=O)C(CC(C)C)NC)C(C)OC(=O)C(Cc2ccc(OC)c(Cl)c2)N(C)C(=O)C2CCCN2C(=O)C(CC(C)C)NC(=O)C(C)C(=O)C(C(C)C)OC(=O)CC1O (centres unmarked) [Compound 1, N,O-diMe-o-chlorotyrosine derivative of didemnin A] | 400 | 260 | 120 | 260 | 160 | 260 | 4800 | – | – | – | – | – | – |
| C=C1C(=O)O[C@H]2[C@H]1CC/C(C)=C/CC[C@@]1(C)O[C@@H]21 [Parthenolide, reference compound] | 2800 | 2800 | – | – | – | – | – | – | – | – | – | – | – |
| CC[C@H](C)[C@H]1NC(=O)[C@@H](NC(=O)[C@@H](CC(C)C)NC)[C@@H](C)OC(=O)[C@H](Cc2ccc(OC)cc2)N(C)C(=O)[C@@H]2CCCN2C(=O)[C@H](CC(C)C)NC(=O)[C@@H](C)C(=O)[C@H](C(C)C)OC(=O)C[C@@H]1O [Compound 3, didemnin A] (H-[dNMeL]T[X1]LP[NMeY](Me); ester 2-C) | – | 190 | 55 | 160 | 70 | 160 | 4780 | 190 | – | – | – | – | – |
| CC[C@H](C)[C@H]1NC(=O)[C@@H](NC(=O)[C@@H](CC(C)C)N(C)C(=O)[C@@H]2CCCN2C(=O)C(C)O)[C@@H](C)OC(=O)[C@H](Cc2ccc(OC)cc2)N(C)C(=O)[C@@H]2CCCN2C(=O)[C@H](CC(C)C)NC(=O)[C@@H](C)C(=O)[C@H](C(C)C)OC(=O)C[C@@H]1O (some centres unmarked) [Compound 4, didemnin B] | – | 30 | 22 | 90 | 20 | 100 | 150 | 2 | – | – | – | – | – |
| COc1cccc2c1C(=O)c1c(O)c3c(c(O)c1C2=O)C[C@@](O)(C(=O)CO)C[C@@H]3O[C@H]1C[C@H](N)[C@H](O)[C@H](C)O1 [Doxorubicin, reference compound] | – | – | – | – | – | – | – | – | 1100 | 1660 | 1010 | 1660 | 14000 |
